Patent EP4741392A1, “1H-PYRAZOLO[4,3-C]PYRIDINE COMPOUND, AND COMPOSITION THEREOF AND USE THEREOF” (Shenzhen TargetRx Co., Ltd., priority 2023, dated 2025)
Read-outs that look alike come from different tables or passages of the source.

Key:
Assay type in all cases: cell-based
Ramos cells with BTK WT = assay: Phosphor-BTK(Y223) assay, suspended cells; conditions: phosphorylated BTK Y223, Ramos cells with BTK WT
In short: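 Ramos BTK WT cells (2.5 k/well) were treated with compound dilutions for 2 h at 37 °C, then 5 mM Na3VO4 for 3 h. Lysates were read by HTRF p-BTK(Y223) cryptate/d2 antibodies overnight at RT (665/620 ratio). IC50 came from a four-parameter fit of % inhibition versus blank and positive-control wells.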

NIH/3T3 BTK WT cells = assay: Phosphor-BTK(Y223) assay, adherent cells; conditions: read-out: NIH/3T3 BTK-WT pBTK
In short: (§1)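 NIH/3T3 cells expressing WT or C481S BTK were pretreated with compound for 0.5 h at 37 °C, then stimulated with 1 mM Na3VO4 (final) for 2 h. Lysates were assayed by HTRF for p-BTK Y223 using the 665/620 nm ratio. IC50 was obtained by nonlinear fit of % inhibition versus 0.5% DMSO control.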

NIH/3T3 BTK C481S cells = assay: Phosphor-BTK(Y223) assay, adherent cells; conditions: read-out: NIH/3T3 BTK-C481S pBTK
In short: as §1

[1] = Mus musculus, NIH3T3, phosphorylated BTK Y223, NIH/3T3 BTK WT cells
[2] = Mus musculus, NIH3T3, phosphorylated BTK Y223, NIH/3T3 BTK C481S cells

## COc1ccc(F)cc1C(=O)NCc1ccc(-c2ncc(-c3cc(NC(=O)C4CC4)ccn3)c3[nH]nc(N)c23)cc1 [Example 80, N-(4-(3-amino-7-(4-(cyclopropaneformamido)pyridin-2-yl)-1H-pyrazolo[4,3-c]pyridin-4-yl)benzyl)-5-fluoro-2-methoxybenzamide]
Ramos cells with BTK WT; Homo sapiens
  IC50: ≤ 5 nM
NIH/3T3 BTK WT cells; [1]
  IC50: 5 to 10 nM
NIH/3T3 BTK C481S cells; [2]
  IC50: 5 to 10 nM

## COc1ccc(F)cc1C(=O)NCc1ccc(-c2ncc(-c3ccc(F)cn3)c3[nH]nc(N)c23)cc1 [Example 21, N-(4-(3-amino-7-(5-fluoropyridin-2-yl)-1H-pyrazolo[4,3-c]pyridin-4-yl)benzyl)-5-fluoro-2-methoxybenzamide]
Ramos cells with BTK WT; Homo sapiens, Ramos
  IC50: ≤ 5 nM
NIH/3T3 BTK WT cells; [1]
  IC50: ≤ 5 nM
NIH/3T3 BTK C481S cells; [2]
  IC50: ≤ 5 nM

## COc1ccc(F)cc1C(=O)NCc1ccc(-c2ncc(-c3ncccn3)c3[nH]nc(N)c23)cc1 [Example 17, N-(4-(3-amino-7-(pyrimidin-2-yl)-1H-pyrazolo[4,3-c]pyridin-4-yl)benzyl)-5-fluoro-2-methoxybenzamide]
Ramos cells with BTK WT; Homo sapiens, Ramos
  IC50: 5 to 10 nM
NIH/3T3 BTK WT cells; [1]
  IC50: ≤ 5 nM
NIH/3T3 BTK C481S cells; [2]
  IC50: 5 to 10 nM

## COc1ccc(F)cc1C(=O)NCc1ccc(-c2ncc(-c3cnccn3)c3[nH]nc(N)c23)cc1 [Example 18, N-(4-(3-amino-7-(pyrazin-2-yl)-1H-pyrazolo[4,3-c]pyridin-4-yl)benzyl)-5-fluoro-2-methoxybenzamide]
Ramos cells with BTK WT; Homo sapiens, Ramos
  IC50: 10 to 50 nM
NIH/3T3 BTK WT cells; [1]
  IC50: ≤ 5 nM
NIH/3T3 BTK C481S cells; [2]
  IC50: 10 to 50 nM

## COc1ccc(F)cc1C(=O)NCc1ccc(-c2ncc(-c3cc[nH]n3)c3[nH]nc(N)c23)cc1 [Example 31, N-(4-(3-amino-7-(1H-pyrazol-3-yl)-1H-pyrazolo[4,3-c]pyridin-4-yl)benzyl)-5-fluoro-2-methoxybenzamide]
Ramos cells with BTK WT; Homo sapiens, Ramos
  IC50: 10 to 50 nM
NIH/3T3 BTK WT cells; [1]
  IC50: 5 to 10 nM
NIH/3T3 BTK C481S cells; [2]
  IC50: 10 to 50 nM

## COc1ccc(F)cc1C(=O)NCc1ccc(-c2nc(C(C)C(F)(F)F)c(-c3ccn(C)n3)c3[nH]nc(N)c23)cc1 (stereo not drawn) [Example 6, N-(4-(3-amino-7-(1-methyl-1H-pyrazol-3-yl)-6-(1,1,1-trifluoropropan-2-yl)-1H-pyrazolo[4,3-c]pyridin-4-yl)benzyl)-5-fluoro-2-methoxybenzamide]
Ramos cells with BTK WT; Homo sapiens, Ramos
  IC50: ≤ 5 nM
NIH/3T3 BTK WT cells; [1]
  IC50: ≤ 5 nM
NIH/3T3 BTK C481S cells; [2]
  IC50: 5 to 10 nM

## COc1ccc(F)cc1C(=O)NCc1ccc(-c2ncc(-c3ccc(C(=O)N4C[C@@H](C)O[C@H](C)C4)cn3)c3[nH]nc(N)c23)cc1 [Example 54, N-(4-(3-amino-7-(5-((2R,6R)-2,6-dimethylmoroholine-4-carbonyl)pyridin-2-yl)-1H-pyrazolo[4,3-c]pyridin-4-yl)benzyl)-5-fluoro-2-methoxybenzamide]
Ramos cells with BTK WT; Homo sapiens, Ramos
  IC50: ≤ 5 nM
NIH/3T3 BTK WT cells; [1]
  IC50: ≤ 5 nM
NIH/3T3 BTK C481S cells; [2]
  IC50: ≤ 5 nM

## COc1ccc(F)cc1C(=O)NCc1ccc(-c2ncc(-c3ccn(CC(F)(F)F)n3)c3[nH]nc(N)c23)cc1 [Example 28, N-(4-(3-amino-7-(1-(2,2,2-trifluoroethyl)-1H-pyrazol-3-yl)-1H-pyrazolo[4,3-c]pyridin-4-yl)benzyl)-5-fluoro-2-methoxybenzamide]
Ramos cells with BTK WT; Homo sapiens, Ramos
  IC50: 10 to 50 nM
NIH/3T3 BTK WT cells; [1]
  IC50: ≤ 5 nM
NIH/3T3 BTK C481S cells; [2]
  IC50: 10 to 50 nM

## COc1ccc(F)cc1C(=O)NCc1ccc(-c2ncc(-c3ncc(C(F)(F)F)cn3)c3[nH]nc(N)c23)cc1 [Example 42, N-(4-(3-amino-7-(5-(trifluoromethyl)pyrimidin-2-yl)-1H-pyrazolo[4,3-c]pyridin-4-yl)benzyl)-5-fluoro-2-methoxybenzamide]
Ramos cells with BTK WT; Homo sapiens, Ramos
  IC50: 10 to 50 nM
NIH/3T3 BTK WT cells; [1]
  IC50: ≤ 5 nM
NIH/3T3 BTK C481S cells; [2]
  IC50: 10 to 50 nM

## COc1ccc(F)cc1C(=O)NCc1ccc(-c2ncc(-c3cnn4cccnc34)c3[nH]nc(N)c23)cc1 [Example 70, N-(4-(3-amino-7-(pyrazolo[1,5-a]pyrimidin-3-yl)-1H-pyrazolo[4,3-c]pyridin-4-yl)benzyl)-5-fluoro-2-methoxybenzamide]
Ramos cells with BTK WT; Homo sapiens, Ramos
  IC50: ≤ 5 nM
NIH/3T3 BTK WT cells; [1]
  IC50: ≤ 5 nM
NIH/3T3 BTK C481S cells; [2]
  IC50: ≤ 5 nM

## COc1ccc(F)cc1C(=O)NCc1ccc(-c2ncc(-c3ccc(NC(=O)C4CC4)cn3)c3[nH]nc(N)c23)cc1 [Example 79, N-(4-(3-amino-7-(5-(cyclopropaneformamido)pyridin-2-yl)-1H-pyrazolo[4,3-c]pyridin-4-yl)benzyl)-5-fluoro-2-methoxybenzamide]
Ramos cells with BTK WT; Homo sapiens
  IC50: 5 to 10 nM
NIH/3T3 BTK WT cells; [1]
  IC50: 5 to 10 nM
NIH/3T3 BTK C481S cells; [2]
  IC50: 10 to 50 nM

## N-(4-(3-amino-7-(1-(difluoromethyl)-1H-pyrazol-3-yl)-1H-pyrazolo[4,3-c]pyridin-4-yl)benzyl)-5-fluoro-2-methoxybenzamide [Example 29]
Ramos cells with BTK WT
  IC50: ≤ 5 nM
NIH/3T3 BTK WT cells; phosphorylated BTK Y223, NIH/3T3 BTK WT cells
  IC50: ≤ 5 nM
NIH/3T3 BTK C481S cells; phosphorylated BTK Y223, NIH/3T3 BTK C481S cells
  IC50: 5 to 10 nM

## COc1ccc(F)cc1C(=O)NCc1ccc(-c2ncc(-c3ccn4nccc4n3)c3[nH]nc(N)c23)cc1 [Example 46, N-(4-(3-amino-7-(pyrazolo[1,5-a]pyrimidin-5-yl)-1H-pyrazolo[4,3-c]pyridin-4-yl)benzyl)-5-fluoro-2-methoxybenzamide]
Ramos cells with BTK WT; Homo sapiens, Ramos
  IC50: ≤ 5 nM
NIH/3T3 BTK WT cells; [1]
  IC50: ≤ 5 nM
NIH/3T3 BTK C481S cells; [2]
  IC50: 5 to 10 nM

## COCCOc1ccc(-c2cnc(-c3ccc(CNC(=O)c4cc(F)ccc4OC)cc3)c3c(N)n[nH]c23)nc1 [Example 59, N-(4-(3-amino-7-(5-(2-methoxyethoxy)pyridin-2-yl)-1H-pyrazolo[4,3-c]pyridin-4-yl)benzyl)-5-fluoro-2-methoxybenzamide]
Ramos cells with BTK WT; Homo sapiens, Ramos
  IC50: ≤ 5 nM
NIH/3T3 BTK WT cells; [1]
  IC50: ≤ 5 nM
NIH/3T3 BTK C481S cells; [2]
  IC50: ≤ 5 nM

## COc1ccc(F)cc1C(=O)NCc1ccc(-c2nc(C)c(-c3ncccn3)c3[nH]nc(N)c23)cc1 [Example 84, N-(4-(3-amino-6-methyl-7-(pyrimidin-2-yl)-1H-pyrazolo[4,3-c]pyridin-4-yl)benzyl)-5-fluoro-2-methoxybenzamide]
Ramos cells with BTK WT; Homo sapiens, Ramos
  IC50: 5 to 10 nM
NIH/3T3 BTK WT cells; [1]
  IC50: 5 to 10 nM
NIH/3T3 BTK C481S cells; [2]
  IC50: 10 to 50 nM

## COc1ccc(F)cc1C(=O)NCc1ccc(-c2ncc(-c3ccc(C(F)F)cn3)c3[nH]nc(N)c23)cc1 [Example 48, N-(4-(3-amino-7-(5-(difluoromethyl)pyridin-2-yl)-1H-pyrazolo[4,3-c]pyridin-4-yl)benzyl)-5-fluoro-2-methoxybenzamide]
Ramos cells with BTK WT; Homo sapiens, Ramos
  IC50: ≤ 5 nM
NIH/3T3 BTK WT cells; [1]
  IC50: ≤ 5 nM
NIH/3T3 BTK C481S cells; [2]
  IC50: ≤ 5 nM

## COc1ccc(F)cc1C(=O)NCc1ccc(-c2nc(C(C)C(F)(F)F)c(-c3ncccn3)c3[nH]nc(N)c23)cc1 (stereo not drawn) [Example 7, N-(4-(3-amino-7-(pyrimidin-2-yl)-6-(1,1,1-trifluoropropan-2-yl)-1H-pyrazolo[4,3-c]pyridin-4-yl)benzyl)-5-fluoro-2-methoxybenzamide]
Ramos cells with BTK WT; Homo sapiens, Ramos
  IC50: 5 to 10 nM
NIH/3T3 BTK WT cells; [1]
  IC50: ≤ 5 nM
NIH/3T3 BTK C481S cells; [2]
  IC50: 5 to 10 nM

## COc1ccc(F)cc1C(=O)NCc1ccc(-c2ncc(-c3ccc(N4CCN(C)CC4)cn3)c3[nH]nc(N)c23)cc1 [Example 73, N-(4-(3-amino-7-(5-(4-methylpiperazin-1-yl)pyridin-2-yl)-1H-pyrazolo[4,3-c]pyridin-4-yl)benzyl)-5-fluoro-2-methoxybenzamide]
Ramos cells with BTK WT; Homo sapiens, Ramos
  IC50: ≤ 5 nM
NIH/3T3 BTK WT cells; [1]
  IC50: ≤ 5 nM
NIH/3T3 BTK C481S cells; [2]
  IC50: ≤ 5 nM

## COc1ccc(F)cc1C(=O)NCc1ccc(-c2nc(C3CCSCC3)cc3[nH]nc(N)c23)cc1 [Example 91, N-(4-(3-amino-6-(tetrahydro-2H-thiopyran-4-yl)-1H-pyrazolo[4,3-c]pyridin-4-yl)benzyl)-5-fluoro-2-methoxybenzamide]
Ramos cells with BTK WT; Homo sapiens, Ramos
  IC50: 5 to 10 nM
NIH/3T3 BTK WT cells; [1]
  IC50: ≤ 5 nM
NIH/3T3 BTK C481S cells; [2]
  IC50: 5 to 10 nM

## COc1ccc(F)cc1C(=O)NCc1ccc(-c2ncc(-c3nccn4cccc34)c3[nH]nc(N)c23)cc1 [Example 77, N-(4-(3-amino-7-(pyrrolo[1,2-a]pyrazin-1-yl)-1H-pyrazolo[4,3-c]pyridin-4-yl)benzyl)-5-fluoro-2-methoxybenzamide]
Ramos cells with BTK WT; Homo sapiens, Ramos
  IC50: ≤ 5 nM
NIH/3T3 BTK WT cells; [1]
  IC50: ≤ 5 nM
NIH/3T3 BTK C481S cells; [2]
  IC50: ≤ 5 nM

## COc1ccc(F)cc1C(=O)NCc1ccc(-c2ncc(-c3nccn4nccc34)c3[nH]nc(N)c23)cc1 [Example 98, N-(4-(3-amino-7-(pyrazolo[1,5-a]pyrazin-4-yl)-1H-pyrazolo[4,3-c]pyridin-4-yl)benzyl)-5-fluoro-2-methoxybenzamide]
Ramos cells with BTK WT; Homo sapiens, Ramos
  IC50: ≤ 5 nM
NIH/3T3 BTK WT cells; [1]
  IC50: ≤ 5 nM
NIH/3T3 BTK C481S cells; [2]
  IC50: ≤ 5 nM

## COc1ccc(F)cc1C(=O)NCc1ccc(-c2ncc(-c3ccc(C(F)(F)F)cn3)c3[nH]nc(N)c23)cc1 [Example 24, N-(4-(3-amino-7-(5-(trifluoromethyl)pyridin-2-yl)-1H-pyrazolo[4,3-c]pyridin-4-yl)benzyl)-5-fluoro-2-methoxybenzamide]
Ramos cells with BTK WT; Homo sapiens, Ramos
  IC50: ≤ 5 nM
NIH/3T3 BTK WT cells; [1]
  IC50: ≤ 5 nM
NIH/3T3 BTK C481S cells; [2]
  IC50: ≤ 5 nM

## COc1ccc(F)cc1C(=O)NCc1ccc(-c2ncc(-c3ccc(C(=O)N4C[C@H](C)O[C@@H](C)C4)cn3)c3[nH]nc(N)c23)cc1 [Example 53, N-(4-(3-amino-7-(5-((2S,6S)-2,6-dimethylmorpholine-4-carbonyl)pyridin-2-yl)-1H-pyrazolo[4,3-c]pyridin-4-yl)benzyl)-5-fluoro-2-methoxybenzamide]
Ramos cells with BTK WT; Homo sapiens, Ramos
  IC50: 5 to 10 nM
NIH/3T3 BTK WT cells; [1]
  IC50: ≤ 5 nM
NIH/3T3 BTK C481S cells; [2]
  IC50: ≤ 5 nM

## COc1ccc(F)cc1C(=O)NCc1ccc(-c2ncc(-c3ccncn3)c3[nH]nc(N)c23)cc1 [Example 19]
Ramos cells with BTK WT; Homo sapiens, Ramos
  IC50: 5 to 10 nM
NIH/3T3 BTK WT cells; [1]
  IC50: ≤ 5 nM
NIH/3T3 BTK C481S cells; [2]
  IC50: 5 to 10 nM

## COc1ccc(F)cc1C(=O)NCc1ccc(-c2ncc(-c3cc4ncccn4n3)c3[nH]nc(N)c23)cc1 [Example 44, N-(4-(3-amino-7-(pyrazolo[1,5-a]pyrimidin-2-yl)-1H-pyrazolo[4,3-c]pyridin-4-yl)benzyl)-5-fluoro-2-methoxybenzamide]
Ramos cells with BTK WT; Homo sapiens, Ramos
  IC50: ≤ 5 nM
NIH/3T3 BTK WT cells; [1]
  IC50: ≤ 5 nM
NIH/3T3 BTK C481S cells; [2]
  IC50: ≤ 5 nM
